# Measured values: PubChem BioAssay (NCI)
#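 48-hour exposure; five concentrations; linearly interpolated endpoints. TGI: concentration producing complete growth inhibition.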 Where a SMILES comes first, the peptide text is derived from it. The star is where a group is joined. Boc = CC(C)(C)OC(=O)*
# Tests used:
# Test in all cases: DTP human tumour cell line panel, 48 h
# A549 NSCLC = test system: A549 NSCLC
# U251 CNS = test system: U251 CNS
# SR leukemia = test system: SR leukemia
# MOLT-4 leukemia = test system: MOLT-4 leukemia
# NCI/ADR-RES ovarian = test system: NCI/ADR-RES ovarian
Structure (SMILES),TGI (A549 NSCLC) [µM],TGI (U251 CNS) [µM],TGI (SR leukemia) [µM],TGI (MOLT-4 leukemia) [µM],TGI (NCI/ADR-RES ovarian) [µM]
CC(C)C1=CC23CCC4C(C)(C(=O)O)CCCC4(C)C2CC1C1C(=O)N(c2ccc(N4C(=O)C5C6CC7C8(C)CCCC(C)(C(=O)O)C8CCC7(C=C6C(C)C)C5C4=O)cc2)C(=O)C13 (configuration not stated),43.3,14.4,15.9,22,
Cc1ccc(S(=O)(=O)NN=C2C(C)CC(C(C)(C)C)CC2C)cc1 (configuration not stated),32.7,31.5,62.2,43,82.1
CNC(=O)Nn1c(SC)nc2ccccc21,> 100,> 100,> 100,> 100,> 100
Cc1nn(C(=O)c2ccc(Cl)cc2)c2c1C(c1ccccc1)SC(N)=N2 (configuration not stated),> 10,> 10,> 10,> 10,> 10
O=C(c1ccccc1)c1ccc(N2C(=O)/C(=C/c3cccc([N+](=O)[O-])c3)N=C2c2ccccc2)c(N2C(=O)/C(=C/c3cccc([N+](=O)[O-])c3)N=C2c2ccccc2)c1,> 100,> 100,> 100,> 100,> 100
Brc1ccc2[nH]cc([C@@H]3CN[C@@H](c4c[nH]c5ccc(Br)cc45)CN3)c2c1,19.4,11.2,4.17,4.51,25.2
CCOC(=O)c1sc2c(c1OC(=O)c1ccc(Cl)cc1Cl)c(=O)n(-c1ccccc1)c(=S)n2-c1ccccc1,> 100,> 56.1,,14.5,> 47.8
CCOc1ccc(-n2c(=O)c3nn4c(=O)n(-c5ccc(OCC)cc5)c(=O)c4nn3c2=O)cc1,> 100,> 100,> 100,> 100,> 100
NC(=S)Nc1c(S(N)(=O)=O)cc(S(N)(=O)=O)c(Cl)c1Cl,> 100,> 100,,> 100,> 100
CCN(CC)CCC1CCCCN1CC(=O)N1c2ccccc2NC(=O)CC1C (configuration not stated),> 100,> 100,> 100,> 100,
Cc1cc(C)c2c(=O)cc(-c3ccccc3)[nH]c2c1,29.1,18,> 100,> 100,34.3
Cc1c(/C=N/NC(=S)Nc2ccc([N+](=O)[O-])cc2)c(=O)n(-c2ccccc2)n1C,,30.9,> 100,> 100,32.1
N[C@@H]1c2c(Br)sc(Br)c2C(=O)[C@H]1Br,> 100,60.1,> 64.2,> 46.1,53.8
Cc1cc(N(C)C)ccc1N=Nc1ccc2ncccc2c1,> 100,> 100,> 100,> 100,> 100
COc1cc(Br)cc2c1O[C@H]1C(=O)CC3CC21CCN3C (some centres not stated),> 100,,> 100,61.6,> 100
COc1ccc(-c2nc(SCC(=O)N/N=C/c3ccc([N+](=O)[O-])cc3)[nH]c2-c2ccc(OC)cc2)cc1,> 100,29.4,,42.1,79.7
CC(=O)OCC(OC(C)=O)C(OC(C)=O)C(/C=N\Nc1nc2ccccc2c(=O)[nH]1)OC(C)=O (configuration not stated),> 100,> 100,> 100,> 100,> 100

Structure (SMILES),TGI (A549 NSCLC) [µM],TGI (U251 CNS) [µM],TGI (SR leukemia) [µM],TGI (MOLT-4 leukemia) [µM],TGI (NCI/ADR-RES ovarian) [µM]
CN1CCN(Cn2nc(-c3ccccc3)n(/N=C/c3ccc(-c4ccc(Cl)cc4Cl)o3)c2=S)CC1,,17.5,5.04,5.15,56.2
COc1cc(C2SC(N)=Nc3c2c(C)nn3C(=O)Cc2ccccc2)cc(OC)c1OC (configuration not stated),> 100,,> 100,> 100,
CCOC(=O)c1ccc(N(C)Cc2cnc3nc(N)nc(N)c3n2)cc1,,> 100,> 100,> 100,38.8
CCCc1c(O)c2ccccc2[nH]c1=O,> 100,> 100,> 100,> 100,> 100
CCc1nc2c(n1CC)C(=O)c1ccccc1C2=O,> 100,> 100,> 100,> 100,> 100
CC(C)(C)OC(=O)CCC1NC(=O)[C@@H]2Cc3c([nH]c4ccccc34)C(c3ccccc3)N2C1=O (some centres not stated),> 100,43.3,> 100,> 100,87.6
CC(=O)OC12c3ccccc3C(c3ccccc31)C1C(=O)N(c3ccccc3O)C(=O)C12 (configuration not stated),> 100,> 100,> 100,> 100,> 100
C/C(CC(O)(C(F)(F)Cl)C(F)(F)Cl)=N\Nc1ccccc1,> 100,89.4,> 100,84.2,> 100
CNC(=O)CNC(=O)C(NC(=O)CNC(=O)C1CCCN1C(=O)C(C)NC(=O)C(NC(=O)OC(C)(C)C)C(C)C)C(C)C (configuration not stated) (Boc-VAPGVG-NHMe; configuration not given here),,> 100,> 100,> 100,> 100
Oc1c(Nc2ccccc2)cc2c3c1N=NC=3CCN=2,> 100,> 100,> 100,87.3,> 100
NCCSC1(O)C(=O)c2ccccc2-c2ccccc21 (configuration not stated),2.91,2.16,1.88,1.21,1.4
O=C(O)[C@@]1(Cc2ccc(O)cc2)C[C@@H]2Cc3ccccc3N2N1,> 100,> 100,> 100,> 100,> 100
Cc1ccc(C)n1-n1c(Cc2ccc(Cl)cc2)n[nH]c1=O,> 100,> 100,> 100,> 100,> 100
COc1cc(S(=O)(=O)Nc2ccc(-c3csc(/N=C\c4ccccc4O)n3)cc2)ccc1Cl,> 100,,95.2,70.3,> 100
O=c1[nH]ncc2[nH]c(-c3ccccc3)cc12,> 100,> 100,> 100,> 100,69
C=CC[C@H](O)[C@@](NC(=O)OCc1ccccc1)(Sc1ccc(C)cc1)C(F)(F)F,> 100,28.4,60.9,87.2,> 100
